Measured values reported in patent US7098204B2 (C.N.R.S., priority 1999, dated 2006).
Values after ≈ are worked out from the molar mass of the structure shown.

Experiments:
cdk3/cyclin E = cdk3/cyclin E (Homo sapiens, UniProt Q00526); assay: cdk3/cyclin E kinase assay; type: biochemical; conditions: 15 μM ATP
Description: (§1) Kinases activities were assayed in Buffer A or C (unless otherwise stated), at 30° C., at a final ATP concentration of 15 μM. Blank values were subtracted and activities calculated as pmoles of phosphate incorporated for a 10 min. incubation (usually expressed in % of the maximal activity, i.e. without inhibitors). Controls were performed with appropriate dilutions of Me2SO. In some cases phosphorylation of the substrate was assessed by autoradiography after SDS-PAGE. IC50 values were estimated from the dose-response curves. • CDK1/cyclin B was extracted in homogenisation buffer from M phase starfish (Marthasterias glacialis) oocytes and purified by affinity chromatography on p9^CKShs1-Sepharose beads, from which it was eluted by free p9^CKShs1 as described. The kinase activity was assayed in buffer C, with 1 mg histone H1/ml, in the presence of 15 μM [γ-^32P] ATP (3,000 Ci/mmol; 1 mCi/ml) in a final volume of 30 μl. After 10 min. incubation at 30° C., 25 μl aliquots of supernatant were spotted onto 2.5×3 cm pieces of Whatman P81 phosphocellulose paper, and, 20 sec. later, the filters were washed five times (for at least 5 min. each time) in a solution of 10 ml phosphoric acid/liter of water. The wet filters were counted in the presence of 1 ml ACS (Amersham) scintillation fluid. • GSK-3β was either purified from rabbit muscle or expressed in and purified from insect Sf9 cells. […]

CDK1/cyclin B = CDK1/cyclin B kinase assay (histone H1); type: biochemical, starfish (Marthasterias glacialis)
Description: Kinases activities were assayed in Buffer A or C (unless otherwise stated), at 30° C., at a final ATP concentration of 15 μM. Blank values were subtracted and activities calculated as pmoles of phosphate incorporated for a 10 min. incubation (usually expressed in % of the maximal activity, i.e. without inhibitors). Controls were performed with appropriate dilutions of Me2SO. In some cases phosphorylation of the substrate was assessed by autoradiography after SDS-PAGE. IC50 values were estimated from the dose-response curves. • CDK1/cyclin B was extracted in homogenisation buffer from M phase starfish (Marthasterias glacialis) oocytes and purified by affinity chromatography on p9^CKShs1-Sepharose beads, from which it was eluted by free p9^CKShs1 as described. The kinase activity was assayed in buffer C, with 1 mg histone H1/ml, in the presence of 15 μM [γ-^32P] ATP (3,000 Ci/mmol; 1 mCi/ml) in a final volume of 30 μl. After 10 min. incubation at 30° C., 25 μl aliquots of supernatant were spotted onto 2.5×3 cm pieces of Whatman P81 phosphocellulose paper, and, 20 sec. later, the filters were washed five times (for at least 5 min. each time) in a solution of 10 ml phosphoric acid/liter of water. The wet filters were counted in the presence of 1 ml ACS (Amersham) scintillation fluid. • GSK-3β was either purified from rabbit muscle or expressed in and purified from insect Sf9 cells. It was assayed, following a 1/100 dilution in 1 mg BSA/ml 10 mM DTT, with 5 μl 40 μM GS-1 peptide as a substrate, in buffer A, in the presence of 15 μM [γ-^32P] ATP (3,000 Ci/mmol; 1 mCi/ml) in a final volume of 30 μl. […] Its activity was assayed in buffer C as described for CDK1/cyclin B. • CDK2/cyclin A, CDK2/cyclin E, CDK3/cyclin E, CDK4/cyclin D1, CDK6/cyclin D2, His-tagged erk1 and erk2, protein kinase C isoforms, the catalytic subunit of cAMP-dependent protein kinase, cGMP-dependent protein kinase, Myosin light chain kinase, casein kinases 1 & 2, ASK-γ (a plant homologue of GSK-3), insulin receptor tyrosine kinase domain (CIRK-41), c-raf, MAPKK, c-jun N terminal kinase (obtained from Promega), c-src kinase and v-abl kinase were assayed as described. Electrophoresis and Western Blotting

cdk2/cyclin E = cdk2/cyclin E (Homo sapiens, UniProt P24941); assay: cdk2/cyclin E kinase assay; type: biochemical; conditions: 15 μM ATP
Description: as §1

kidney, A498 = assay: Human cancer cell line A498 proliferation; type: cell-based
c-abl tyrosine kinase = c-abl tyrosine kinase (Abelson murine leukemia virus, UniProt P00521); assay: c-abl tyrosine kinase assay; type: biochemical; conditions: 15 μM ATP
Description: as §1

cdk2/cyclin A = cdk2/cyclin A (Homo sapiens, UniProt P24941); assay: cdk2/cyclin A kinase assay; type: biochemical; conditions: 15 μM ATP
Description: as §1

cdk4/cyclin D1 = cdk4/cyclin D1 (Homo sapiens, UniProt P11802); assay: cdk4/cyclin D1 kinase assay; type: biochemical; conditions: 15 μM ATP
Description: as §1

P388 cell line = assay: Inhibition of cell proliferation, P388; type: cell-based; conditions: Mus musculus, P388; read-out: IC50 on P388 cell line in μM (parentheses)
topoisomerase II α = topoisomerase II α (Homo sapiens, UniProt P11388); assay: topoisomerase II α assay; type: biochemical; conditions: −(x) = no effect at the highest dose tested (in parentheses)
Description: Enzyme activities were assayed as described in the Experimental Procedures section, in the presence of increasing HD concentrations. IC50's were calculated from the dose-response curves.−, no effect at the highest dose tested (in parentheses).

protein kinase C β1 = protein kinase C β1 (Homo sapiens, UniProt P05771); assay: protein kinase C β1 assay; type: biochemical; conditions: 15 μM ATP
Description: as §1

protein kinase C β2 = protein kinase C β2 (Homo sapiens, UniProt P05771); assay: protein kinase C β2 assay; type: biochemical; conditions: 15 μM ATP
Description: as §1

erk1 = target: T1, erk1 (Homo sapiens, UniProt P27361); assay: erk1 kinase assay; type: biochemical; conditions: 15 μM ATP
T1 construct: His
Description: Blank values were subtracted and activities calculated as pmoles of phosphate incorporated for a 10 min. incubation (usually expressed in % of the maximal activity, i.e. without inhibitors). Controls were performed with appropriate dilutions of Me2SO. In some cases phosphorylation of the substrate was assessed by autoradiography after SDS-PAGE. […] ATP (3,000 Ci/mmol; 1 mCi/ml) in a final volume of 30 μl. After 10 min. incubation at 30° C., 25 μl aliquots of supernatant were spotted onto 2.5×3 cm pieces of Whatman P81 phosphocellulose paper, and, 20 sec. later, the filters were washed five times (for at least 5 min. each time) in a solution of 10 ml phosphoric acid/liter of water. […] ATP (3,000 Ci/mmol; 1 mCi/ml) in a final volume of 30 μl. […] Its activity was assayed in buffer C as described for CDK1/cyclin B. • CDK2/cyclin A, CDK2/cyclin E, CDK3/cyclin E, CDK4/cyclin D1, CDK6/cyclin D2, His-tagged erk1 and erk2, protein kinase C isoforms, the catalytic subunit of cAMP-dependent protein kinase, cGMP-dependent protein kinase, Myosin light chain kinase, casein kinases 1 & 2, ASK-γ (a plant homologue of GSK-3), insulin receptor tyrosine kinase domain (CIRK-41), c-raf, MAPKK, c-jun N terminal kinase (obtained from Promega), c-src kinase and v-abl kinase were assayed as described [15].

HT29-18-C1 cells = assay: Flow cytometric cell cycle analysis, HT29-18-C1; type: cell-based, human
Description: Cell culture and treatments. HT29-18-C1, a subclone of the human colon adenocarcinoma cell line HT29, was cultured in Dulbecco's modified Eagle's medium (Gibco-BRL) supplemented with 10% FCS, 2 mM L-glutamine (Eurobio) and […] gentamycin (Gibco-BRL) at 37° C., 10% CO2. Cells were synchronized by serum deprivation for 48 h. They were then released from growth arrest by the addition of 5% fetal calf serum (FCS). HD, prepared in DMSO, was added immediately to the medium, for 24 h and at final concentrations ranging from 0 to 80 μM. In some experiments HD was added 22 h after serum addition for an additional 24 h. In other experiments HD was added to unsynchronised cells. Cells were then washed and cultured in 5% FCS medium and counted or analysed by FACS at different times.
Cell counts and flow cytometric cell cycle analysis. Cell were counted with a hemocytometer. Cell cycle distribution was analysed by flow cytometry. […] The stained cells were analysed on a FACScan cytofluorimeter using the cellFit Software program (Becton Dickinson Immunocytometry Systems).
The results concerning the cell cycle distribution of HD-treated cells are given on FIG. 10A. […] Cells were then fixed and their cell cycle phase status was determined by FACscan analysis as described in the Experimental Procedures section. […] Cell cycle distribution was analysed every 24 h for a 72 h period. […]

melanoma, SK-MEL-5 = assay: Human cancer cell line SK-MEL-5 proliferation; type: cell-based

topoisomerase II α, sequence (P11388 whole entry): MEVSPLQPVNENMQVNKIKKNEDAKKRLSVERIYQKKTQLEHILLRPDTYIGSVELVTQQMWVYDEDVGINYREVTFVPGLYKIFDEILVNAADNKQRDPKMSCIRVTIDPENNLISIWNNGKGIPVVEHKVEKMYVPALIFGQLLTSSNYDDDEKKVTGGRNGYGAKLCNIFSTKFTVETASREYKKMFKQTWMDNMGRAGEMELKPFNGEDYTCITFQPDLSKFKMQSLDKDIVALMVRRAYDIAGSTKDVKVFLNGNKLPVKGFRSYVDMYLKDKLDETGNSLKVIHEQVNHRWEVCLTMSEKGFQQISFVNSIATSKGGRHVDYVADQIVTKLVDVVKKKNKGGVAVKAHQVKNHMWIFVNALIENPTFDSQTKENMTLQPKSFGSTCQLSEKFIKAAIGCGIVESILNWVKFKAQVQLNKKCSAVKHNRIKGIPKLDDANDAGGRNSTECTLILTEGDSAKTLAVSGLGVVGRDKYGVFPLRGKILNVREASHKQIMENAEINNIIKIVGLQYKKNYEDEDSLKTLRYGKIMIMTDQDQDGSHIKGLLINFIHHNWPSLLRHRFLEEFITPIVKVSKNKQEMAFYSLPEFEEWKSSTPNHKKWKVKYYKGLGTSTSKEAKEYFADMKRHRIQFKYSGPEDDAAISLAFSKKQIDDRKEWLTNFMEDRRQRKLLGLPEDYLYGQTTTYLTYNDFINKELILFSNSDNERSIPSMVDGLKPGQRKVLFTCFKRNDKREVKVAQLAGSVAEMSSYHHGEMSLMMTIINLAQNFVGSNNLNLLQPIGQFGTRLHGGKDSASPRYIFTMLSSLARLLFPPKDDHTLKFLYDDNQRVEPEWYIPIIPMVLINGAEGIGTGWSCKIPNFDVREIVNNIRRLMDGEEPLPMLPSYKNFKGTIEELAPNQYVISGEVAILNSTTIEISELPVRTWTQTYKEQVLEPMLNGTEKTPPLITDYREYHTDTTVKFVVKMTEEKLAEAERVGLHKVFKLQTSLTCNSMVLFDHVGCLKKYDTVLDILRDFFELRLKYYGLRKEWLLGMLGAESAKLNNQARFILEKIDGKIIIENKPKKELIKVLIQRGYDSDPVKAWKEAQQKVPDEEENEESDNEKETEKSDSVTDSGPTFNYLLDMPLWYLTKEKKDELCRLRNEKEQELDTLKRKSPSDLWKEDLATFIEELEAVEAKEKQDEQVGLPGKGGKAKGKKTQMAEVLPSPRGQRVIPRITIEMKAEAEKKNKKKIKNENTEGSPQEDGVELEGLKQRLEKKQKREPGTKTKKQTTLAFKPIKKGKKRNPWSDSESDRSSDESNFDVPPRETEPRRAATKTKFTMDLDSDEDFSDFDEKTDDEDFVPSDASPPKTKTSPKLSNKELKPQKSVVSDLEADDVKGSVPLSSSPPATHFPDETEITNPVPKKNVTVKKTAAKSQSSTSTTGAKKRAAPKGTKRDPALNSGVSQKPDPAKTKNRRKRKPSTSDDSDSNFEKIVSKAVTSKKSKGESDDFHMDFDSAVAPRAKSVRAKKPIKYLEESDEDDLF
protein kinase C β1, sequence (P05771 whole entry): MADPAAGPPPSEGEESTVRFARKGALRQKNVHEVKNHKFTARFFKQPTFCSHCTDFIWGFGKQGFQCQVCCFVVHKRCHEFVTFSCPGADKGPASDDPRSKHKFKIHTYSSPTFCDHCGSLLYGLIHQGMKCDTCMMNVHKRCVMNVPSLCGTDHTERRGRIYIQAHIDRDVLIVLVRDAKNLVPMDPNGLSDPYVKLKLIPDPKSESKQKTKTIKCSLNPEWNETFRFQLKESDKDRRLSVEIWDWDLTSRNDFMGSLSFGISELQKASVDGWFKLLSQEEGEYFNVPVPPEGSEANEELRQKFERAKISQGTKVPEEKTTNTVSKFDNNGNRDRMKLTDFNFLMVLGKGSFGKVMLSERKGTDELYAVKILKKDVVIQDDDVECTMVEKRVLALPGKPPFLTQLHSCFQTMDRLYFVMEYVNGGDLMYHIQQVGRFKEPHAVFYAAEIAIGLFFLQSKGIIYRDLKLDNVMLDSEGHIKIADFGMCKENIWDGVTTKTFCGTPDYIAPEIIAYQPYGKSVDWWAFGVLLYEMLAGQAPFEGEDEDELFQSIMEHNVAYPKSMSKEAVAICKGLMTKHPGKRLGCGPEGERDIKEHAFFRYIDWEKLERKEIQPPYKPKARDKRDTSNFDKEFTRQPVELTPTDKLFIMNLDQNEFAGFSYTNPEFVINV
T1 sequence (P27361 whole entry, species assumed): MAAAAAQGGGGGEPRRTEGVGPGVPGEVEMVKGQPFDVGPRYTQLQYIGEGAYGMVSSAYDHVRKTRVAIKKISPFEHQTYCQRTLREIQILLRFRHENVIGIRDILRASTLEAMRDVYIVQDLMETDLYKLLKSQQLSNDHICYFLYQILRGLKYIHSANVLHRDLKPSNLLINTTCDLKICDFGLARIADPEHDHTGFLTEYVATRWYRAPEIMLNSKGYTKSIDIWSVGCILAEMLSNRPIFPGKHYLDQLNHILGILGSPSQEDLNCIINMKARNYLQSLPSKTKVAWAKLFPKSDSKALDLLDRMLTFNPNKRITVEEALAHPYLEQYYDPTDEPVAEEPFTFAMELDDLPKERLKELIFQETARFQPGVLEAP
protein kinase C β2, sequence (P05771 1-673 isoform P05771-2): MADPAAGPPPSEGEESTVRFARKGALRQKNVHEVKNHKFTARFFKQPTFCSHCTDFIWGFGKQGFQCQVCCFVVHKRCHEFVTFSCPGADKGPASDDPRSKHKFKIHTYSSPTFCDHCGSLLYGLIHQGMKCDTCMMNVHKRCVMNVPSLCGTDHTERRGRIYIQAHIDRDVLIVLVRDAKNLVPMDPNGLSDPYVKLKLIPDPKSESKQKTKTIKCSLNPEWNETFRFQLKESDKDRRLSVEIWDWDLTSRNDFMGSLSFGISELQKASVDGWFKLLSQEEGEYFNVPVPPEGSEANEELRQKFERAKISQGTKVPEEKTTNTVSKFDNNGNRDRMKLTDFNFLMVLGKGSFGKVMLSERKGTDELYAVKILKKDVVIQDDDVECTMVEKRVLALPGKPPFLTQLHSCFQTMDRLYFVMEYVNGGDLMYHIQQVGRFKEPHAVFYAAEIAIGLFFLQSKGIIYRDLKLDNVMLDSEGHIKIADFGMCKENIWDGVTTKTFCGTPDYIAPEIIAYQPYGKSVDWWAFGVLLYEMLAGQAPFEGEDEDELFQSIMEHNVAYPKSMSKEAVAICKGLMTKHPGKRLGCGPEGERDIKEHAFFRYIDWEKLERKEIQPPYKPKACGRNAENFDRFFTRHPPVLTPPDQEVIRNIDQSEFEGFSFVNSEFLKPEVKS
cdk4/cyclin D1, sequence (P11802 whole entry, species assumed): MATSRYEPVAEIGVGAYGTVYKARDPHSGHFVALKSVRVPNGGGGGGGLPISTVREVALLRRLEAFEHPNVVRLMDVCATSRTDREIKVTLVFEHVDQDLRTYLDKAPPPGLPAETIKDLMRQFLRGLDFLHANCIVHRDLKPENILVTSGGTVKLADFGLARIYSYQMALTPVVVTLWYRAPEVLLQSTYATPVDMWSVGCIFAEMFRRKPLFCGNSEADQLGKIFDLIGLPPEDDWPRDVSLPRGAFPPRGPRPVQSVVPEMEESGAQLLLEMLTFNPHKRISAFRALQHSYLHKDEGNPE
cdk4/cyclin D1, sequence (P24385 whole entry partner, species assumed): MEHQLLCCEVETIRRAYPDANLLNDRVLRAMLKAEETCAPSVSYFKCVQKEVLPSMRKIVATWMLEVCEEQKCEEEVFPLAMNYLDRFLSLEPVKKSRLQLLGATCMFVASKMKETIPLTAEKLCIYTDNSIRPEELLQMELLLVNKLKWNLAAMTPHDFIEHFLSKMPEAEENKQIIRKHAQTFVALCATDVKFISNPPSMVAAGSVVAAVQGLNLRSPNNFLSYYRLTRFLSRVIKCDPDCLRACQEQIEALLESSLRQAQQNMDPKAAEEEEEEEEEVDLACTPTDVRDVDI
c-abl tyrosine kinase, sequence (P00521 whole entry): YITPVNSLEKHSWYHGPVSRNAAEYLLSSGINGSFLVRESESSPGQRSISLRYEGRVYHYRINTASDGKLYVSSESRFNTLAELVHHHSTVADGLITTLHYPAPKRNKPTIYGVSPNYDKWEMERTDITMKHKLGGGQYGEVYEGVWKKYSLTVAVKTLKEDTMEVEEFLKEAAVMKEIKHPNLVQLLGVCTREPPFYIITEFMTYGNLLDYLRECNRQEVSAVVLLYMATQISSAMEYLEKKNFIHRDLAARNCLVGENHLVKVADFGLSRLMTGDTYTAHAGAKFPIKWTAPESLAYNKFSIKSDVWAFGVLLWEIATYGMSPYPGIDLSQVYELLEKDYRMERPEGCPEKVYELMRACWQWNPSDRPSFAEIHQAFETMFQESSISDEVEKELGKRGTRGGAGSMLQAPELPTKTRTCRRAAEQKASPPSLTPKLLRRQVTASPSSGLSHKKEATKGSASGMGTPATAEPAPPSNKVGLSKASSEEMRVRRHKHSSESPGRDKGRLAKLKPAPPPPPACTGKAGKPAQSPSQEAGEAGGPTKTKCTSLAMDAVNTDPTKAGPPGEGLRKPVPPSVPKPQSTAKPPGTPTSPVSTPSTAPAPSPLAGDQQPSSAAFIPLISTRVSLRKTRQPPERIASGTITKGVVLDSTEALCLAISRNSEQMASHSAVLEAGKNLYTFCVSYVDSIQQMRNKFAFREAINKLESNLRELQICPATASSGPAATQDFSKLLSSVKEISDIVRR

With `NC1=NC(=O)C(=C2CCNC(=O)c3[nH]c(Br)cc32)N1` [hymenialdisine, 4-(2-amino-4-oxo-2-imidazolin-5-ylidene)-2-bromo-4,5,6,7-tetrahydropyrrolo (2,3-c) azepine-8-one] the IC50 (cdk3/cyclin E) was 100 nM, the IC50 (CDK1/cyclin B) was 22 nM and the IC50 (cdk2/cyclin E) was 40 nM. It also gave an IC50 (kidney, A498) of 24.7 µg/mL (≈ 76.2 µM), an IC50 (c-abl tyrosine kinase) of 4000 nM and an IC50 (cdk2/cyclin A) of 70 nM. The IC50 (cdk4/cyclin D1) was 600 nM, the IC50 (P388 cell line) was 9.9 µM and the IC50 (topoisomerase II α) was over 10000 nM. The IC50 (protein kinase C β1) was 1200 nM, the IC50 (protein kinase C β2) was 1700 nM and the IC50 (erk1) was 470 nM. The cell cycle distribution (HT29-18-C1 cells; 10 μM HD added 22 hr after serum, analysed 14 h later) was “accumulation of cells in G2/M”, the cell cycle distribution (HT29-18-C1 cells; HD added with serum at time 0, 24 h) was “accumulation of cells in S phase” and the IC50 (melanoma, SK-MEL-5) was 5.7 µg/mL (≈ 17.6 µM).
